Numbers after ± are expanded uncertainties.
Key:
[1] = refractive index (Na D-line) (dimensionless); conditions: 298.15 K; 101.33 kPa; Liquid; Standard Abbe refractometry
[2] = Liquid; for mass density: 298.15 K, 101.33 kPa

Row | SMILES | refractive index [1] | mass density [2] [kg/m3] | vapor or sublimation pressure ([2]; 418.69 K) [kPa] | vapor or sublimation pressure ([2]; 352.68 K) [kPa] | vapor or sublimation pressure ([2]; 351.46 K) [kPa]
1 | CC(C)O [propan-2-ol] | 1.3754 ± 0.0005 | 780.75 ± 0.24 |  |  | 
2 | CCCCOC(=O)CC [butyl propanoate] | 1.3992 ± 0.0005 | 870.88 ± 0.48 | 101.3 ± 0.3 |  | 
3 | CCC(C)=O [butanone] | 1.3761 ± 0.0005 | 799.62 ± 0.23 |  | 101.3 ± 0.2 | 
4 | CCO [ethanol] | 1.3594 ± 0.0005 | 786.47 ± 0.5 |  |  | 101.3 ± 0.2
